According to patent US20250186405A1, “Compound For Use In Treating Narcolepsy” (Alkermes, Inc., priority 2023, published 2025):

Test system: subjects with idiopathic hypersomnia (IH)
Experiment: Part 6 POC IH: treatment-emergent adverse events, single doses, crossover
Details: N = 8
Procedure: Part 6 consisted of a 4-way, 4-period crossover study design in approximately 8 subjects (2 subjects per sequence; minimum of 4 subjects with 1 subject per sequence). […] Treatments were administered under fasted state.
Subjects were randomized to 1 of 4 sequences. […] No food was given for at least 3 hours after dose administration (i.e., fast can be broken after the 3-hour PK time point is collected). Water was allowed ad libitum except for 1 hour before and 1 hour after study drug administration. Safety assessments including AEs, safety ECGs, vital signs, and clinical laboratory tests were conducted, and plasma PK samples were collected.
Adverse events (AEs) and serious adverse events (SAEs) were monitored continuously until the completion of the study.
Eight subjects with IH were dosed in Part 6 (POC in IH) in a randomized 4-sequence 4-period cross-over design.

## CS(=O)(=O)N[C@H]1CCCN2C(=O)COc3ccccc3C3CCC(CC3)OCC12 (stereo partly drawn) [Compound A, N-[(4S,4aR,7α,10α)-1,2,3,4,4a,5,7,8,9,10,16,17-dodecahydro-17-oxo-7,10-ethanopyrido[1,2-d][1,7,4]benzodioxaazacyclotridecin-4-yl]methanesulfonamide]
5 mg single dose
  AE Leading to Study Drug Discontinuation: 0 n (%)
  Any SAEs: 0 n (%)
  Any TEAE: 6 (75.0) n (%)
  Death: 0 n (%)
  Drug Related TEAE by Preferred Term: Cold sweat: 0 n (%)
  Drug Related TEAE by Preferred Term: Dizziness: 0 n (%)
  Drug Related TEAE by Preferred Term: Dysuria: 0 n (%)
  Drug Related TEAE by Preferred Term: Feeling jittery: 0 n (%)
  Drug Related TEAE by Preferred Term: Insomnia: 0 n (%)
  Drug Related TEAE by Preferred Term: Micturition urgency: 1 (12.5) n (%)
  Drug Related TEAE by Preferred Term: Middle insomnia: 1 (12.5) n (%)
  Drug Related TEAE by Preferred Term: Palpitations: 0 n (%)
  Drug Related TEAE by Preferred Term: Pollakiuria: 2 (25.0) n (%)
  Drug Related TEAE by Preferred Term: Supraventricular extrasystoles: 0 n (%)
  Drug Related TEAE by Preferred Term: Tachycardia: 0 n (%)
  Drug Related TEAE by Preferred Term: Visual impairment: 0 n (%)
  Subjects with at least one TEAE: 6 (75.0) n (%)
  Subjects with at least one treatment-related TEAE: 2 (25.0) n (%)
  TEAE by Highest Relationship: Not Related: 4 (50.0) n (%)
  TEAE by Highest Relationship: Related: 2 (25.0) n (%)
  TEAE by Highest Severity: Mild: 6 (75.0) n (%)
  TEAE by Highest Severity: Moderate: 0 n (%)
  TEAE by Highest Severity: Severe: 0 n (%)
  TEAE by Preferred Term: Blood creatine phosphokinase increased: 0 n (%)
  TEAE by Preferred Term: Blood creatinine increased: 0 n (%)
  TEAE by Preferred Term: Cold sweat: 0 n (%)
  TEAE by Preferred Term: Dermatitis contact: 0 n (%)
  TEAE by Preferred Term: Dizziness: 2 (25.0) n (%)
  TEAE by Preferred Term: Dysuria: 0 n (%)
  TEAE by Preferred Term: Epistaxis: 0 n (%)
  TEAE by Preferred Term: Feeling jittery: 0 n (%)
  TEAE by Preferred Term: Headache: 1 (12.5) n (%)
  TEAE by Preferred Term: Insomnia: 0 n (%)
  TEAE by Preferred Term: Micturition urgency: 1 (12.5) n (%)
  TEAE by Preferred Term: Middle insomnia: 1 (12.5) n (%)
  TEAE by Preferred Term: Nausea: 1 (12.5) n (%)
  TEAE by Preferred Term: Neck pain: 1 (12.5) n (%)
  TEAE by Preferred Term: Palpitations: 0 n (%)
  TEAE by Preferred Term: Phlebitis: 0 n (%)
  TEAE by Preferred Term: Pollakiuria: 2 (25.0) n (%)
  TEAE by Preferred Term: Presyncope: 0 n (%)
  TEAE by Preferred Term: Skin irritation: 1 (12.5) n (%)
  TEAE by Preferred Term: Steatorrhoea: 0 n (%)
  TEAE by Preferred Term: Supraventricular extrasystoles: 0 n (%)
  TEAE by Preferred Term: Tachycardia: 0 n (%)
  TEAE by Preferred Term: Urinary tract infection: 1 (12.5) n (%)
  TEAE by Preferred Term: Vessel puncture site bruise: 2 (25.0) n (%)
  TEAE by Preferred Term: Vessel puncture site pain: 0 n (%)
  TEAE by Preferred Term: Visual impairment: 0 n (%)
  TEAE by Preferred Term: Vomiting: 0 n (%)
12 mg single dose
  AE Leading to Study Drug Discontinuation: 0 n (%)
  Any SAEs: 0 n (%)
  Any TEAE: 5 (62.5) n (%)
  Death: 0 n (%)
  Drug Related TEAE by Preferred Term: Cold sweat: 0 n (%)
  Drug Related TEAE by Preferred Term: Dizziness: 0 n (%)
  Drug Related TEAE by Preferred Term: Dysuria: 1 (12.5) n (%)
  Drug Related TEAE by Preferred Term: Feeling jittery: 0 n (%)
  Drug Related TEAE by Preferred Term: Insomnia: 0 n (%)
  Drug Related TEAE by Preferred Term: Micturition urgency: 0 n (%)
  Drug Related TEAE by Preferred Term: Middle insomnia: 1 (12.5) n (%)
  Drug Related TEAE by Preferred Term: Palpitations: 0 n (%)
  Drug Related TEAE by Preferred Term: Pollakiuria: 2 (25.0) n (%)
  Drug Related TEAE by Preferred Term: Supraventricular extrasystoles: 0 n (%)
  Drug Related TEAE by Preferred Term: Tachycardia: 0 n (%)
  Drug Related TEAE by Preferred Term: Visual impairment: 0 n (%)
  Subjects with at least one TEAE: 5 (62.5) n (%)
  Subjects with at least one treatment-related TEAE: 3 (37.5) n (%)
  TEAE by Highest Relationship: Not Related: 2 (25.0) n (%)
  TEAE by Highest Relationship: Related: 3 (37.5) n (%)
  TEAE by Highest Severity: Mild: 5 (62.5) n (%)
  TEAE by Highest Severity: Moderate: 0 n (%)
  TEAE by Highest Severity: Severe: 0 n (%)
  TEAE by Preferred Term: Blood creatine phosphokinase increased: 1 (12.5) n (%)
  TEAE by Preferred Term: Blood creatinine increased: 1 (12.5) n (%)
  TEAE by Preferred Term: Cold sweat: 0 n (%)
  TEAE by Preferred Term: Dermatitis contact: 0 n (%)
  TEAE by Preferred Term: Dizziness: 0 n (%)
  TEAE by Preferred Term: Dysuria: 1 (12.5) n (%)
  TEAE by Preferred Term: Epistaxis: 0 n (%)
  TEAE by Preferred Term: Feeling jittery: 0 n (%)
  TEAE by Preferred Term: Headache: 1 (12.5) n (%)
  TEAE by Preferred Term: Insomnia: 0 n (%)
  TEAE by Preferred Term: Micturition urgency: 0 n (%)
  TEAE by Preferred Term: Middle insomnia: 1 (12.5) n (%)
  TEAE by Preferred Term: Nausea: 1 (12.5) n (%)
  TEAE by Preferred Term: Neck pain: 0 n (%)
  TEAE by Preferred Term: Palpitations: 0 n (%)
  TEAE by Preferred Term: Phlebitis: 1 (12.5) n (%)
  TEAE by Preferred Term: Pollakiuria: 2 (25.0) n (%)
  TEAE by Preferred Term: Presyncope: 1 (12.5) n (%)
  TEAE by Preferred Term: Skin irritation: 0 n (%)
  TEAE by Preferred Term: Steatorrhoea: 1 (12.5) n (%)
  TEAE by Preferred Term: Supraventricular extrasystoles: 0 n (%)
  TEAE by Preferred Term: Tachycardia: 0 n (%)
  TEAE by Preferred Term: Urinary tract infection: 0 n (%)
  TEAE by Preferred Term: Vessel puncture site bruise: 0 n (%)
  TEAE by Preferred Term: Vessel puncture site pain: 0 n (%)
  TEAE by Preferred Term: Visual impairment: 0 n (%)
  TEAE by Preferred Term: Vomiting: 0 n (%)
25 mg single dose
  AE Leading to Study Drug Discontinuation: 0 n (%)
